# Data as given in patent US5202315A, “Cephalosporin compounds” (Lucky, Ltd., priority 1989, dated 1993).
# Read-outs that look alike come from different tables or passages of the source.
# Columns and labels:
# Test in all cases: Antibacterial activity, MIC
# Type in all cases: cell-based
# [1] = tested on: Acinetobacter calcoaceticus ATCC 15473; settings: ATCC15473, ATCC 15473, agar two-fold dilution, 37° C., 20 hours, read-out: MIC
# Procedure: (§1) Also, the in vitro antibacterial activity was determined by the by a two-fold dilution method as described below:
# (§2) That is, the two-fold serial dilutions of the compound were made dispersed in Muller-Hinton agar medium. 2 μl of standard test strain which had the 10^7 CFU per ml was inoculated on the medium, and was incubated at 37° C. for 20 hours.
# [2] = tested on: Bacillus cereus ATCC 11778; settings: ATCC11778, ATCC 11778, agar two-fold dilution, 37° C., 20 hours, read-out: MIC
# Procedure: as §1, §2
# [3] = tested on: Bacillus megaterium ATCC 9885; settings: Priestia megaterium, ATCC9885; ATCC 9885; agar two-fold dilution, 37° C., 20 hours; read-out: MIC
# Procedure: as §1, §2
# [4] = tested on: Citrobacter freundii ATCC 8090; settings: ATCC8090, ATCC 8090, agar two-fold dilution, 37° C., 20 hours, read-out: MIC
# Procedure: as §1, §2
# [5] = tested on: Enterobacter aerogenes ATCC 29751; settings: Klebsiella aerogenes, ATCC29751; ATCC 29751; agar two-fold dilution, 37° C., 20 hours; read-out: MIC
# Procedure: as §1, §2
# [6] = tested on: Enterobacter cloacae ATCC 27508; settings: ATCC27508, ATCC 27508, agar two-fold dilution, 37° C., 20 hours, read-out: MIC
# Procedure: as §1, §2
# [7] = tested on: Escherichia coli ATCC 10536; settings: ATCC10536, agar two-fold dilution, 37° C., 20 hours
# Procedure: as §1, §2
# [8] = tested on: Escherichia coli ATCC 25922; settings: ATCC25922, agar two-fold dilution, 37° C., 20 hours
# Procedure: as §1, §2
# [9] = tested on: Klebsiella pneumoniae ATCC 10031; settings: ATCC10031, ATCC 10031, agar two-fold dilution, 37° C., 20 hours, read-out: MIC
# Procedure: as §1, §2
# [10] = tested on: Micrococcus luteus ATCC 9341; settings: ATCC9341, ATCC 9341, agar two-fold dilution, 37° C., 20 hours, read-out: MIC
# Procedure: as §1, §2
# [11] = tested on: Morganella morganii ATCC 8076h; settings: ATCC8076H, agar two-fold dilution, 37° C., 20 hours
# Procedure: as §1, §2
# [12] = tested on: Proteus mirabilis ATCC 25933; settings: ATCC25933, ATCC 25933, agar two-fold dilution, 37° C., 20 hours, read-out: MIC
# Procedure: as §1, §2
# [13] = tested on: Proteus vulgaris ATCC 6059; settings: ATCC6059, ATCC 6059, agar two-fold dilution, 37° C., 20 hours, read-out: MIC
# Procedure: as §1, §2
# [14] = tested on: Providencia rettgeri ATCC 9250; settings: ATCC9250, agar two-fold dilution, 37° C., 20 hours
# Procedure: as §1, §2
# [15] = tested on: Pseudomonas aeruginosa ATCC 10145; settings: ATCC10145, ATCC 10145, agar two-fold dilution, 37° C., 20 hours, read-out: MIC
# Procedure: as §1, §2
# [16] = tested on: Pseudomonas aeruginosa ATCC 25619; settings: ATCC25619, ATCC 25619, agar two-fold dilution, 37° C., 20 hours, read-out: MIC
# Procedure: as §1, §2
# [17] = tested on: Pseudomonas aeruginosa ATCC 27853; settings: ATCC27853, ATCC 27853, agar two-fold dilution, 37° C., 20 hours, read-out: MIC
# Procedure: as §1, §2
# [18] = tested on: Salmonella typhimurium ATCC 14028; settings: Salmonella enterica; ATCC 14028; agar two-fold dilution, 37° C., 20 hours; read-out: MIC
# Procedure: as §1, §2
# [19] = tested on: Serratia marcescens ATCC 27117; settings: ATCC27117, ATCC 27117, agar two-fold dilution, 37° C., 20 hours, read-out: MIC
# Procedure: as §1, §2
# [20] = tested on: Shigella flexneri ATCC 11836; settings: ATCC11836, agar two-fold dilution, 37° C., 20 hours
# Procedure: as §1, §2
# [21] = tested on: Shigella sonnei ATCC 11060
# Procedure: as §1, §2
# [22] = tested on: Staphylococcus aureus ATCC 10537; settings: ATCC10537, ATCC 10537, agar two-fold dilution, 37° C., 20 hours, read-out: MIC
# Procedure: as §1, §2
# [23] = tested on: Staphylococcus aureus ATCC 6538p; settings: ATCC6538P, ATCC 6538p, agar two-fold dilution, 37° C., 20 hours, read-out: MIC
# Procedure: as §1, §2
# [24] = tested on: Staphylococcus epidermidis ATCC 12228; settings: ATCC12228, ATCC 12228, agar two-fold dilution, 37° C., 20 hours, read-out: MIC
# Procedure: as §1, §2
# [25] = tested on: Streptococcus faecalis ATCC 29212; settings: Enterococcus faecalis, ATCC29212; ATCC 29212; agar two-fold dilution, 37° C., 20 hours; read-out: MIC
# Procedure: as §1, §2
# [26] = ATCC11060, ATCC 11060, agar two-fold dilution, 37° C., 20 hours, read-out: MIC
SMILES,MIC [1] [µg/mL],MIC [2] [µg/mL],MIC [3] [µg/mL],MIC [4] [µg/mL],MIC [5] [µg/mL],MIC [6] [µg/mL],MIC [7] [µg/mL],MIC [8] [µg/mL],MIC [9] [µg/mL],MIC [10] [µg/mL],MIC [11] [µg/mL],MIC [12] [µg/mL],MIC [13] [µg/mL],MIC [14] [µg/mL],MIC [15] [µg/mL],MIC [16] [µg/mL],MIC [17] [µg/mL],MIC [18] [µg/mL],MIC [19] [µg/mL],MIC [20] [µg/mL],other results
CC(C)(O/N=C(\C(=O)NC1C(=O)N2C(C(=O)[O-])=C(CSc3nc(N)cc(N)[n+]3C3CC3)CSC12)c1csc(N)n1)C(=O)O (centres unmarked) [Compound I-48],4,64,0.5,0.13,2,0.031,0.13,0.13,0.063,0.5,≤ 0.008,0.063,0.13,≤ 0.008,4,2,2,0.5,0.25,0.063,"MIC [21, 26]: 0.13 µg/mL; MIC [22]: 4 µg/mL; MIC [23]: 4 µg/mL; MIC [24]: 2 µg/mL; MIC [25]: > 128 µg/mL"
CCO/N=C(\C(=O)NC1C(=O)N2C(C(=O)[O-])=C(CSc3nc(N)cc(N)[n+]3CC)CSC12)c1csc(N)n1 (centres unmarked) [Compound I-12],4,16,0.063,0.063,0.5,≤ 0.008,0.063,0.13,≤ 0.008,≤ 0.008,≤ 0.008,0.13,0.25,≤ 0.008,8,1,2,0.5,0.13,0.031,"MIC ([21]; ATCC11060, 20 h): 0.13 µg/mL; MIC [22]: 0.25 µg/mL; MIC [23]: 0.25 µg/mL; MIC [24]: 0.063 µg/mL; MIC [25]: 32 µg/mL"
C[n+]1c(N)cc(N)nc1SCC1=C(C(=O)[O-])N2C(=O)C(NC(=O)/C(=N\OC(C)(C)C(=O)O)c3nsc(N)n3)C2SC1 (centres unmarked) [Compound I-26],4,> 128,1,0.13,1,0.031,0.13,0.13,0.13,1,≤ 0.008,0.13,0.13,≤ 0.008,2,2,2,0.5,0.25,0.063,"MIC [21, 26]: 0.13 µg/mL; MIC [22]: 8 µg/mL; MIC [23]: 8 µg/mL; MIC [24]: 4 µg/mL; MIC [25]: > 128 µg/mL"
CC[n+]1c(N)cc(N)nc1SCC1=C(C(=O)[O-])N2C(=O)C(NC(=O)/C(=N\OC(C)(C)C(=O)O)c3nsc(N)n3)C2SC1 (centres unmarked) [Compound I-27],8,> 128,1,0.25,2,0.063,0.13,0.13,0.063,0.5,≤ 0.008,0.13,0.13,≤ 0.008,4,2,2,0.5,0.25,0.25,"MIC [21, 26]: 0.13 µg/mL; MIC [22]: 4 µg/mL; MIC [23]: 8 µg/mL; MIC [24]: 4 µg/mL; MIC [25]: > 128 µg/mL"
CO/N=C(\C(=O)NC1C(=O)N2C(C(=O)[O-])=C(CSc3nc(N)cc(N)[n+]3N)CSC12)c1csc(N)n1 (centres unmarked) [Compound I-19],4,8,0.13,0.13,0.25,0.016,0.13,0.13,≤ 0.008,0.016,0.008,0.13,0.016,≤ 0.008,2,0.5,1,0.25,0.25,0.016,"MIC [21, 26]: 0.063 µg/mL; MIC [22]: 0.5 µg/mL; MIC [23]: 0.25 µg/mL; MIC [24]: 0.063 µg/mL; MIC [25]: 32 µg/mL"
